Laboratory results from patent EP0133795B1 (THE McLEAN HOSPITAL CORPORATION, priority 1983, dated 1985).
Structures can show the parent of a compound that is named as a salt.

Assays:
[1] = tested on: general motor activity of mice; assay: General locomotor activity of mice (Stoelting electronic activity monitor); format: in vivo, Balb/c mice; conditions: for activity in the general motor activity test (in words): i.p., mice
Experimental: The effect of intraperitoneal (i.p.) injections of test compounds on the general motor activity of mice during a 60-min period was determined in a Stoelting electronic activity monitor. Dose-response curves were obtained from which the half-maximally effective values were calculated and the results are shown in Table V.
The compounds were dissolved in 25% (vols.) propylene glycol in water and injected i.p. into Balb/c mice (18-24 g). Dose-response measurements were obtained for 6 animals per dose or time point. Activity was monitored for 60 min using a Stoelting Electronic Activity Monitor (EAM) apparatus to assess the general motor activity of the animals.
The general locomotor activity of mice was measured in the Stolting activity monitor apparatus during 60 min after an intraperitoneal (i.p.) injection of a test compound.

[2] = Comparative brain/liver uptake of 14C-labeled compounds (Brain Penetration Index); conditions: for increase of 5-min BPI over GABA: 5 min after s.c. injection, relative to GABA
Experimental: The criterion used herein for measuring the extent to which a compound, from which the radical A is derived, crosses the blood-brain barrier is based on the uptake of this compound by the brain relative to its uptake by the liver. […] Measurements of the quantity of a compound present in brain and liver at 5 minutes after a subcutaneous (s.c.) injection were used to calculate a Brain Penetration Index (BPI), with the equation: [formula]
This is the amount of the compound present per gram of brain tissue as a percent of the amount per gram of liver tissue.
This procedure has the advantage that even for a sparingly soluble lipid ester, which tends to remain largely at the site of the injection and slowly diffuse into the circulation, its level in the liver will reflect the amount available rather than the initial dose injected.
The uptake of a ^14C-labeled compound into brain was compared with the uptake into liver of the same animal.
All determinations were carried out at 5 min after injection. The volumes of the injected doses into mice (body weight, 18-24 g) for the i.v., i.p., and s.c. doses were 0.15, 0.3 and 0.5 ml, respectively. […] Each tissue was homogenized in 8 ml of pyridine in a glass homogenizer.
Each labeled test compound was injected as a solution in 0.5 ml of saline (Compound 7) or in 25% propylene glycol in water (Compounds 1, 5, 6) subcutaneously (s.c.) into young adult Balb/c mice (18-24 g body weight). After 5 min (or longer) animals were sacrificed and the brain and liver removed, weighed and homogenized respectively in 8 ml and 10 ml of brain protein solvent (1 % (w/v) sodium dodecyl sulfate in 6 M urea and 19 mM EDTA, pH 7.4, 0.03 M phosphate). Aliquots (0.5 ml) of the homogenates were mixed with 10 ml of Aquasol 2 (New England Nuclear) and counted in a Beckman liquid scintillation counter. The total uptake of each compound per g brain and liver tissue was calculated. The proportion of uptake into brain as compared to liver (100%) of the same animal was designated as the Brain Penetration Index (BPI), expressed as a percentage typically at 5 min after injection.
Each of the ^14C-labeled Compounds 26, 28 and 30 were in 125 µl of the propylene glycol diluted with water up to 0.5 ml, and then injected subcutaneously into test Balb/c mice (20 ± 2 g weight). After 5 min the animals were sacrificed and the brain and liver were removed, weighed and homogenized in 8 ml and 10 ml of brain protein solvent, respectively. Next 0.5 ml aliquots were mixed with 10 ml of Aquasol 2 (New England Nuclear Corp., Boston, MA) and counted in a Beckman liquid scintillation counter. The data for the label in each tissue were used to calculate the total quantity of the compound present in brain and liver per gram of tissue. The ratio of the amount in brain as a percent of that present in liver at 5 min was taken as the Brain Penetration Index (BPI). Measurements at longer uptake times were also obtained to evaluate the accumulation of the compounds in the brain.

[3] = n-Octanol/water partition coefficient; format: physicochemical; conditions: n-octanol/water, 5 ml n-octanol / 5 ml water, stirring 18 hours; read-out: KOW: Octanol/Water Partition Coefficient (converted)
Experimental: A Partition Coefficient was defined by the equation: [formula] representing the amount of the ester taken up per ml of n-octanol relative to the amount of the same compound taken up per ml of water.
The n-octanol/water partition coefficients were obtained from measurements of the distribution of 1, 3, 5 and 6 pmol quantities of each ^14C-labeled compound into a mixture of 5 ml of n-octanol and 5 ml water. At each concentration, the amount of labeled compound in the aqueous and n-octanol phases was calculated from the amount of radioactive material present after stirring for 18 hours.

[4] = tested on: bicuculline-induced epileptic seizures; assay: Delay of onset of bicuculline-induced seizures (anticonvulsant activity); format: in vivo, mouse; conditions: for In Vivo Delay of Time of Onset of Bicuculline-induced seizures: graded 0-5; for effect on bicuculline-induced seizures (in words): mice
Experimental: In a second behavioral test, the ability of a substance to prevent or delay the onset of biculline-induced epileptic seizures was measured. […] At 24 hr after i.p. injection of the cholesteryl derivative at a dose of 30 mg/kg (64 pmol/kg), the onset of seizures was delayed by 30% after an acute i.p. injection of bicuculline at 0.3 mg/kg. […] The dexamethasone and butyl esters had no effect.
The compounds were also injected i.p. at 1, 6 and 24 hr before the administration of bicuculline (0.3 mg/kg) s.c. The latency to the onset of generalized tonic-clonic epileptic seizures and the protection against the lethality of bicuculline were measured and evaluated as a percent of the data for vehicle-injected controls. No significant changes were obtained at the 1 hr and 6 hr time points. At the 24 hr time, however, some compounds delayed while others accelerated the onset of seizures.
The effect of the compound to delay the onset of a bicuculline-induced seizures was evaluated.
The ability of a substance to delay the onset of bicuculline-induced epileptic seizures in the mouse was measured (Table X). […] At 24 hr after i.p. injection of the cholesteryl derivative (6) at a dose of 30 mg/kg (64 pmol/kg), the onset of seizures was delayed by 30% (as compared to saline controls) after an acute i.p. injection of bicuculline at 0.3 mg/kg. […] The dexamethasone and butyl esters had no effect on seizures in mice.

CAI pyramidal cells = format: cell-based, Sprague-Dawley rats
Experimental: Transverse slices of hippocampus (350-375 µm thick) were prepared from Sprague-Dawley rats (200-300 g) and transferred onto a nylon net fixed over a 1.5 ml superfusion chamber. The slices were maintained at 32-33°C in a humidified atmosphere of 95%/5% 02/C02. The standard medium consisted of (in mM): NaCl, 125; KCI, 3.5; CaC12,2; MgS04, 1.5; NaH2PO4, 1; NaHC03, 24; and glucose, 10. Low chloride medium was prepared by substituting sodium isethionate for sodium chloride.
Extracellular potentials were recorded with NaCI-fitted micropipettes, and stimulus pulses were applied through bipolar platinum wire electrodes. The various drugs were dissolved in fresh medium (without glucose and phosphate) and applied to the surface of the tissue by pressure ejection from a micropipette, Sakai, Swartz and Woody, (1979).
The inhibitory effectiveness of various compounds was investigated by measuring their ability to suppress the extracellular population spike recorded from the hippocampal CAI pyramidal layer and elicited by stimulation of stratum radiatum axons. The amplitude of this monosynaptic population spike is essentially proportional to the number of pyramidal cells discharging in response to a stimulus volley, Andersen, Bliss and Skrede, (1971).
The various compounds were applied as droplets to the pyramidal layer approximately 75 µm from the recording electrode. The volume of a single drug application was about 300 picoliters. […] The volume ejected from each pipette was calibrated prior to use by measuring the diameter of the ejected droplet and adjusting the duration of the pressure pulse (usually 100-500 msec) until a standard diameter was reached. A constant droplet volume was used throughout the experiments. Where dose-response information was required, several pipettes with different drug concentrations were used.

self-stimulation reward = assay: Self-stimulation reward test; format: in vivo, rats; conditions: for Max. DSSR: DSSR 0.3 designated as 100%
From the text: The procedure measured the capacity of a given pharmacological agent to inhibit rats from receiving stimulating currents provided by electrodes implanted in their brains (lateral hypothalamus), Stellar et al, Pharmacol. Biochem. & Behav., 18,433-442 (1983). The animals will press a lever to receive a current from the implanted electrode in preference to all else. The rate at which they press the lever depends on the intensity of the current (reward) that is being produced by the electrode. The intensity of the current is varied by raising the frequency at which […] pulses (0.1 msec duration) are delivered during a 0.5 sec time span in response to a lever press. A plot of the log of the frequency of the delivered pulses vs. the rate of lever presses for an animal gives a self-stimulation reward curve. Injection of a drug which has a tranquilizing effect shifts such a curve to higher frequencies. The shift of this curve (measured at the halfway point) gives a parameter which is expressed as the "Depression of the Self-Stimulation Reward" or DSSR. The maximum DSSR value obtained for the most powerful neutoleptics and tranquilizing compounds tested so far, seldom exceeds 0.3. This is designated as 100%. In the actual tests, the maximum DSSR value obtained for a given dose of drug and the half-life time [duration half-life (DHL)] of its return to 0% (the control state) was measured.

in vivo = conditions: mouse, brain, sc
[5] = 70 μmol/kg s.c., 5 min, mice, mean ± S.E.M. (n = 3)
[6] = Table IX summary, 5-min Brain Penetration Index
[7] = Table IV, 380 μmol/kg s.c., 5 min, mice, mean ± S.E.M. (n = 3)
[8] = 84 mg/kg, 24 hr pretreatment, bicuculline 0.3 mg/kg, mean ± SEM, n ≥ 6

C[C@@H]1C[C@H]2[C@@H]3CCC4=CC(=O)C=C[C@]4(C)[C@@]3(F)[C@@H](O)C[C@]2(C)[C@@]1(O)C(=O)COC(=O)CCCN [Compound 7, Dexamethasone-21-gamma-aminobutyrate]
In Vivo Inhibition of General Motor Activity ([1]; graded 0-5): 0
activity in the general motor activity test (in words) [1]: not active
(BRAIN) [2, 5]: 8.7 ± 1 nmol/g
(LIVER) [2, 5]: 10.8 ± 2 nmol/g
BPI [2, 5]: 81 ± 20%
(BRAIN) ([2]; 70 μmol/kg s.c., 15 min, mice): 21.5 nmol/g
(LIVER) ([2]; 70 μmol/kg s.c., 15 min, mice): 29.0 nmol/g
BPI ([2]; 70 μmol/kg s.c., 15 min, mice): 74%
increase of 5-min BPI over GABA [2]: 81 fold
BPI [2, 6]: 81
logP at 18 h [3]: -0.0458
In Vivo Delay of Time of Onset of Bicuculline-induced seizures [4]: 0
effect on bicuculline-induced seizures (in words) [4]: no effect

NCc1cc(=O)[nH]o1 [muscimol]
duration of effect relative to a comparably effective dose of GABA (CAI pyramidal cells): roughly 100 times
effect with picrotoxin (10 µM) in the medium or low chloride medium (CAI pyramidal cells): little effect
doses required relative to GABA for effects of comparable magnitude (CAI pyramidal cells; concentration in the drug pipette): nearly a thousand-fold lower
inhibition of the evoked population spike (CAI pyramidal cells; droplets applied to the CAI pyramidal layer): dose-dependent inhibition

1-Linolenoyl 2-gamma-aminobutyryl 3-gamma-vinyl-gamma-aminobutyryl glycerol dihydrochloride [Compound 40]
Max. DSSR (self-stimulation reward; dose 16 μm/kg, Depression of the Self-Stimulation Reward): 90
DHL (self-stimulation reward; dose 16 μm/kg, duration half-life of return to 0%): 30 min

CCCCOC(=O)CCCN [Compound 1, Butyl Ester of GABA]
activity in the general motor activity test (in words) [1]: not active
(BRAIN) ([2]; 380 μmol/kg s.c., 60 min, mice): 14.4 nmol/g
(LIVER) ([2]; 380 μmol/kg s.c., 60 min, mice): 13.7 nmol/g
BPI ([2]; 380 μmol/kg s.c., 60 min, mice): 105%
increase of 5-min BPI over GABA [2]: 74 fold
(BRAIN) [2, 7]: 19.2 ± 0.3 nmol/g
(LIVER) [2, 7]: 26.0 ± 1.6 nmol/g
BPI [2, 7]: 74 ± 3.4%
BPI [2, 6]: 74
In Vivo Delay of Time of Onset of Bicuculline-induced seizures [4]: 1
effect on bicuculline-induced seizures (in words) [4]: no effect
remaining at 1 h (in vivo): 4%

C=CC(N)CCC(=O)O[C@H]1CC[C@@]2(C)C(=CC[C@H]3[C@@H]4CC[C@H]([C@H](C)CCCC(C)C)[C@@]4(C)CC[C@@H]32)C1 (stereo partly shown) [Compound 33, Cholesteryl gamma-vinyl gamma-aminobutyrate hydrochloride]
Max. DSSR (self-stimulation reward; dose 40 μm/kg): 83
DHL (self-stimulation reward; dose 40 μm/kg, duration half-life of return to 0%): 1440 to 2880 min

CC(C)CCC[C@@H](C)[C@H]1CC[C@H]2[C@@H]3CC=C4C[C@@H](O)CC[C@]4(C)[C@H]3CC[C@]12C [cholesterol, reference compound]
Onset of seizures: % Saline Control [4, 8]: 118 ± 6 % Saline Control
Survival Time: % Saline Control [4, 8]: 110 ± 7 % Saline Control

C=CC(N)CCC(=O)O (stereo not shown) [gamma-vinyl GABA, reference compound]
Max. DSSR (self-stimulation reward; dose 31 μm/kg): 0
DHL (self-stimulation reward; dose 31 μm/kg, duration half-life): 0
